The numbers were not newly measured in patent US7887847B2, “Nutritional supplement for treatment of ocular diseases” (priority 2004, dated 2011), which cites them from elsewhere.

In the data set the test system is macular degeneration. To be noted: adults with the highest dietary intake compared with people with the lowest intake.

Each structure is given as a SMILES string.

`CC1=C[C@H](O)CC(C)(C)[C@H]1/C=C/C(C)=C/C=C/C(C)=C/C=C/C=C(C)/C=C/C=C(C)/C=C/C1=C(C)C[C@@H](O)CC1(C)C` [lutein, Lutein]: the “decreased risk of macular degeneration” value is 57%.
